One series addresses D2 receptor (Homo sapiens, UniProt P14416). As to the kind of experiment: Broad screening binding study with 3[H]-raclopride. The settings on record: 3[H]-raclopride as ligand; unpublished findings.
For another series, the system named is dog D1 receptor. As to the kind of experiment: cAMP assay: potentiation of EC20 dopamine in transiently transfected HEK293 cells. Format: cell-based. The settings on record: dog D1, HEK293 transient, n = 4. The method, then: (§1) The human, rhesus monkey, dog, or mouse D1 receptor was cloned into the Jump-In vector system (Life Technologies Corp, CA) and transiently transfected into HEK293 cells. Increases in cAMP by DPTQ (free base, Eli Lilly) were measured in the presence of an EC20 concentration of dopamine. The EC50 values for each species along with % max stimulation (where dopamine max stimulation equals 100%) are presented in Table 1. These in vitro studies were performed at Eli Lilly and Company, Indianapolis, in USA. For further details on the measurement of effects on cAMP accumulation in these transiently transfected cells, see Hao et al. ([2019]).
For orientation: Changes in cAMP serve as a functional read-out for many G protein-coupled receptors.

In the next series the target is T1, human D1 receptor (Homo sapiens, UniProt P21728).
T1 construct: expressed in transfected cells; host or cells: HEK293 (transient, Jump-In vector)
T1 sequence (P21728 whole entry): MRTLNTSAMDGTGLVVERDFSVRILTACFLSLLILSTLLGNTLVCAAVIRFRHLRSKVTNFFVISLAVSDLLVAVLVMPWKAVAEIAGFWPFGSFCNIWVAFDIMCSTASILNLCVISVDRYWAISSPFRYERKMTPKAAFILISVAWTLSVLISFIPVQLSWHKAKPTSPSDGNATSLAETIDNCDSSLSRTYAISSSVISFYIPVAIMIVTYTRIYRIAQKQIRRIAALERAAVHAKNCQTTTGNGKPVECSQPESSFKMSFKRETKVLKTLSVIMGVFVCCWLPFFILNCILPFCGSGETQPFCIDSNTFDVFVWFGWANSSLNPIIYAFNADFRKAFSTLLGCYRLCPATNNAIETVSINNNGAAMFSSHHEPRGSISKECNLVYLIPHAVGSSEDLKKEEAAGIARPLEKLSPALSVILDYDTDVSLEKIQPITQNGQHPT
Described as above. The settings on record: human D1, HEK293 transient, n = 4. Format: cell-based. The method, then:
as §1

The next series deals with T2, mouse D1 receptor (Mus musculus, UniProt Q61616).
T2 construct: expressed in transfected cells; host or cells: HEK293 (transient, Jump-In vector)
T2 sequence (Q61616 whole entry): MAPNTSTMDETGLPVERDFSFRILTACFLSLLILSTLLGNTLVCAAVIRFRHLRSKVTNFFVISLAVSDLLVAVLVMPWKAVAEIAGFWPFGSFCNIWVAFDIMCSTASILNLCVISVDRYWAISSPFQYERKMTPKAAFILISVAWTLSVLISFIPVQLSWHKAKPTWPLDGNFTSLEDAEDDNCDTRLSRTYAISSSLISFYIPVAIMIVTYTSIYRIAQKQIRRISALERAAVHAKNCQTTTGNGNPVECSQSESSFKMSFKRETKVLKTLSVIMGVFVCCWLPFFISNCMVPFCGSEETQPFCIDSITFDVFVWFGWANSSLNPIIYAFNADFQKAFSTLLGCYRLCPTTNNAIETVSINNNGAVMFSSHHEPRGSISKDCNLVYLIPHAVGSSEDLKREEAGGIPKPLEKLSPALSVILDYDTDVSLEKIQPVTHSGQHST
The description is as above. The settings on record: mouse D1, HEK293 transient, n = 4. Format: cell-based. The protocol:
as §1

Series [1] addresses T3, rhesus monkey D1 receptor (Macaca mulatta, UniProt O77680).
T3 construct: expressed in transfected cells; host or cells: HEK293 (transient, Jump-In vector)
Described as above. The class given is cell-based. The settings on record: rhesus D1, HEK293 transient, n = 4. The protocol: as §1

Series [2] in a line: Plasma ligand exposure after IM injection (LC/MS) and projected brain concentrations. The class given is in vivo, macaque monkeys. The protocol: Plasma samples were collected in EDTA tubes at 0, 0.25, 0.50, 1, 2, 4, 8, 12, and 24 h after a bolus IM injection and stored at − 70C until further analysis by LC/MS (for further details see Hao et al. [2019]). For the lower dose of 0.1 mg/kg, IM, plasma samples were collected from three of the animals participating in the spatial working memory task at Yale University, at approximately 1.5 h after dosing (~ 30 min after completion of behavioral test session). Animals were acclimated to sitting freely in a customized chair and having one leg held for hair trimming (if necessary), wiping with 70% alcohol, and saphenous venopuncture using a BD Vacutainer tube inside a safety holder. For the 5 mg/kg, IM dose, plasma samples were collected in a separate study in three male adult macaque monkeys at Eli Lilly and Company, Indianapolis, IN. The collection and storage of samples followed the procedure described above, and analysis of D1 ligand levels was carried out at Eli Lilly and Company, Indianapolis, IN, USA, using liquid chromatography and tandem mass spectrometry.

Series [3] in a line: Brain penetration, unbound brain/plasma ratio and unbound ligand fraction. The settings on record: J. Cramer, unpublished data.
The subject of another series is human D1. On the set-up: method as in Hao et al. [2019]. The settings on record: stably transfected human D1 cloned cells; ref Hao et al. [2019]; read-out: EC50 for potentiation of the dopamine-induced increase in cAMP; cited from earlier work.

Molecules are shown by their SMILES.

T3 sequence (O77680 whole entry): as the sequence (P21728 whole entry) above, with N311I counted along it
Chain of D2 receptor (P14416 whole entry): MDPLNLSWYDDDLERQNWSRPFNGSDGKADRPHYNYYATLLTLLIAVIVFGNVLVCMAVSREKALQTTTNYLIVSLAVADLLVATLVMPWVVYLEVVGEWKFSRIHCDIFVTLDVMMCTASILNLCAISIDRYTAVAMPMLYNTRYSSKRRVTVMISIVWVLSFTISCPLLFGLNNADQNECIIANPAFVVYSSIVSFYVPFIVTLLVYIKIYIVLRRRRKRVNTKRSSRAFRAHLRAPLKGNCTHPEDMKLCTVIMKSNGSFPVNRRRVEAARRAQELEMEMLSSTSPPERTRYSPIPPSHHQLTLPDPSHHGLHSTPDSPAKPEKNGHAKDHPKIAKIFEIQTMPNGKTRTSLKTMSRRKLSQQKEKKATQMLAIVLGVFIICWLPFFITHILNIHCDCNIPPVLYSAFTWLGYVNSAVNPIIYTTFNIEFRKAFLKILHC

Usually Ki stands for a measure of affinity in units of concentration, obtained from inhibition or displacement. What is called EC50 is the concentration giving half of the maximal effect. As for `C[C@H]1c2cccc(CC(C)(C)O)c2C[C@H](CO)N1C(=O)Cc1c(Cl)cccc1Cl` [DPTQ], the Ki at D2 receptor was greater than 5600 nM. Moreover, the EC50 was 21.5 nM in the series on dog D1 receptor; 22.9 nM at human D1 receptor; 534 nM at mouse D1 receptor; 38 nM in series [1]; 76 nM in the series with human D1. Besides, the “Max stimulation (% of max DA)” value with dog D1 receptor is 88 % of max DA; on human D1 receptor, 77 % of max DA; on mouse D1 receptor, 41 % of max DA; in series [1] it was 82 % of max DA. Besides, the “Estimated unbound ligand concentrations in the brain” value in series [2] (0.1 mg/kg IM, 1.5 h after dosing) is 1 to 2 nM. In addition, the “Projected unbound brain concentration as multiple of cAMP EC50” value in series [2] (5 mg/kg IM, 2 h post dosing, hD1 and monkey D1 cAMP assay) was “eightfold down to onefold”. Further, in series [2] (0.1 vs 5 mg/kg IM), the “Plasma levels at 0.1 mg/kg IM relative to 5 mg/kg IM (times lower)” value is “about 50 ×”. Moreover, the “Plasma concentrations at late time points” value in series [2] (after 12 or 24 h) is given as “negligible”. In addition, the “Unbound brain vs unbound plasma concentration ratio” value in series [3] was “about 0.3”. The Unbound ligand fraction in series [3] was 0.068.

The record behind these values is PMC10102062, “Effects of DPTQ, a novel positive allosteric modulator of the dopamine D1 receptor, on spontaneous eye blink rate and spatial working memory in the nonhuman primate” (Psychopharmacology, 2023).
